For orientation: IC50 means the point on the concentration scale where inhibition reaches its midpoint.

We go through five compounds from patent US6903107B1, “Serine protease inhibitor” (Akzo Nobel N.V., priority 1998, dated 2005).

The target of the assay is T1, Human thrombin (Homo sapiens, UniProt P00734).
T1 construct: purchased Centraal Laboratorium voor Bloedtransfusie, Amsterdam, The Netherlands
Briefly: Anti-thrombin assay (hydrolysis of chromogenic substrate S-2238). The assay is classed as biochemical. To be noted: chromogenic substrate S-2238, TNP buffer, pH 7.4, 37° C.; read-out: Antithrombin activity: IC50. As for the experimental part:
Thrombin (Factor IIa) is a factor in the coagulation cascade. The anti-thrombin activity of compounds of the present invention was assessed by measuring spectrophotometrically the rate of hydrolysis of the chromogenic substrate s-2238 exterted by thrombin. This assay for anti-thrombin activity in a buffer system was used to assess the IC50-value of a test compound.
Test medium: Tromethamine-NaCl-polyethylene glycol 6000 (TNP) buffer
Reference compound: 12581 (Kabi)
Vehicle: TNP buffer. Solubilisation can be assisted with dimethylsulphoxide, methanol, ethanol, acetonitrile or tert.-butyl alcohol which are without adverse effects in concentrations up to 2.5% in the final reaction mixture.
Technique Reagents* • 1. Tromethamine-NaCl (TN) buffer Composition of the buffer:
• The pH of the solution is adjusted to 7.4 at 37° C. with HCl (10 mmol.l^−1). • 2. TNP buffer Polyethylene glycol 6000 is dissolved in TN buffer to give a concentration of 3 g.l^−1. • 3. S-2238 solution One vial S-2238 (25 mg; Kabi Diagnostica, Sweden) is dissolved in 20 ml TN buffer to give a concentration of 1.25 mg.ml^−1 (2 mmol.l^−1). • 4. Thrombin solution Human thrombin (16 000 nKat.vial^−1; Centraal Laboratorium voor Bloedtransfusie, Amsterdam, The Netherlands) is dissolved in TNP buffer to give a stock solution of 835 nKat.ml^−1. Immediately before use this solution is diluted with TNP buffer to give a concentration of 3.34 nKat.ml^−1. • All ingredients used are of analytical grade • For aqueous solutions ultrapure water (Milli-Q quality) is used.
Preparation of test and reference compound solutions
The test and reference compounds are dissolved in Milli-Q water to give stock concentrations of 10^−2 mol.l^−1. Each concentration is stepwise diluted with the vehicle to give concentrations of 10^−3, 10^−4 and 10^−5 mol.l^−1. The dilutions, including the stock solution, are used in the assay (final concentrations in the reaction mixture: 3·10^−3; 10^−3; 3·10^−4; 10^−4; 3.10^−5; 10^−5; 3.10^−6 and 10^−6 mol.l^−1, respectively).
At room temperature 0.075 ml and 0.025 ml test compound or reference compound solutions or vehicle are alternately pipetted into the wells of a microtiter plate and these solutions are diluted with 0.115 ml and […] TNP buffer, respectively. An aliquot of 0.030 ml S-2238 solution is added to each well and the plate is pre-heated and pre-incubated with shaking in an incubator (Amersham) for 10 min. at 37° C. Following pre-incubation the hydrolysis of S-2238 is started by addition of 0.030 ml thrombin solution to each well. The plate is incubated (with shaking for 30 s) at 37° C. Starting after 1 min of incubation, the absorbance of each sample at 405 nm is measured every 2 min. for a period of 90 min. using a kinetic microtiter plate reader (Twinreader plus, Flow Laboratories). All data are collected in an IBM personal computer using LOTUS-MEASURE. For each compound concentration (expressed in mol.l^−1 reaction mixture) and for the blank the absorbance is plotted versus the reaction time in min.
Evaluation of responses: For each final concentration the maximum absorbance was calculated from the assay plot. The IC50-value (final concentration, expressed in μmol.l^−1, causing 50% inhibition of the maximum absorbance of the blank) was calculated using the logit transformation analysis according to Hafner et al. (Arzneim.-Forsch./Drug Res. 1977; 27(II): 1871-3).
On to `CC1(C)C2CCC1(CS(=O)(=O)NC(CC1CCCCC1)C(=O)N1CCCCC1CCOc1ccc3c(N)nccc3c1)C(=O)C2` [Example 1, (2S)-1-(N-(−)-camphorsulphonyl-D-cyclohexylalaninyl)-2-(2-(1-amino-isoquinolin-6-oxy)-eythyl)-piperidine], for which the concentration for half-maximal inhibition (IC50) turned out to be 410 nM. For `Nc1nccc2cc(OCCC3CCCCN3C(=O)C(CC3CCCCC3)NCC(=O)NC3CCCC3)ccc12` [Example 9, 1-(N-cyclopentylaminocarbonylmethyl-D-cyclohexylalaninyl)-2-(2-(1-amino-isoquinolin-6-oxy)-ethyl)-piperidine], the IC50 amounted to 320 nM. For `Nc1nccc2cc(OCCC3CCCCN3C(=O)C(CC3CCCCC3)NC3CCCCC3)ccc12` [Example 11, 1-(N-cyclohexyl-D-cyclohexylalanine)-2-(2-(1-amino-isoquinolin-6-oxy)-ethyl)-piperidine] the value was 500 nM; for “1-(N-cyclooctyl-γ-tert-butyl-L-glutamyl)-2-(2-(1-amino-isoquinolin-6-oxy)-ethyl)-piperidine [Example 8]”, 610 nM. Take `Nc1nccc2cc(OCCC3CCCCN3C(=O)C(CC3CCCCC3)NCC(=O)Nc3ccccc3)ccc12` [Example 10, 1-(N-anilinocarbonylmethyl-D-cyclohexylalaninyl)-2-(2-(1-amino-isoquinolin-6-oxy)-ethyl)-piperidine]: the IC50 turned out to be 1350 nM.
